Laboratory results taken from the NIST ThermoML archive (doi:10.1016/j.tca.2015.06.017).
Numbers after ± are expanded uncertainties.

Test: xn = mol fraction of the nth substance listed
Settings: Liquid, Vibrating tube method

CC(C)CCl [1-chloro-2-methylpropane] + CCCCCCC
Settings	mass density [kg/m3]
313.15 K, 20000 kPa, x2 = 0.4986	764.52 ± 0.42
313.15 K, 20000 kPa, x2 = 0.5998	746.45 ± 0.44
313.15 K, 20000 kPa, x2 = 0.7038	729.18 ± 0.45
313.15 K, 20000 kPa, x2 = 0.7993	714.39 ± 0.47
313.15 K, 20000 kPa, x2 = 0.8995	699.99 ± 0.48
313.15 K, 20000 kPa, x2 = 0.9507	692.96 ± 0.48
313.15 K, 30000 kPa, x2 = 0.0531	872.66 ± 0.38
313.15 K, 30000 kPa, x2 = 0.1023	859.97 ± 0.4
313.15 K, 30000 kPa, x2 = 0.2009	835.81 ± 0.43
313.15 K, 30000 kPa, x2 = 0.3009	813.29 ± 0.45
313.15 K, 30000 kPa, x2 = 0.3981	792.99 ± 0.48
313.15 K, 30000 kPa, x2 = 0.4986	773.45 ± 0.5
313.15 K, 30000 kPa, x2 = 0.5998	755.17 ± 0.52
313.15 K, 30000 kPa, x2 = 0.7038	737.72 ± 0.55
313.15 K, 30000 kPa, x2 = 0.7993	722.79 ± 0.56
313.15 K, 30000 kPa, x2 = 0.8995	708.23 ± 0.58
313.15 K, 30000 kPa, x2 = 0.9507	701.14 ± 0.59
313.15 K, 40000 kPa, x2 = 0.0531	881.46 ± 0.42
313.15 K, 40000 kPa, x2 = 0.1023	868.66 ± 0.44
313.15 K, 40000 kPa, x2 = 0.2009	844.37 ± 0.48
313.15 K, 40000 kPa, x2 = 0.3009	821.69 ± 0.51
313.15 K, 40000 kPa, x2 = 0.3981	801.27 ± 0.54
313.15 K, 40000 kPa, x2 = 0.4986	781.56 ± 0.58
313.15 K, 40000 kPa, x2 = 0.5998	763.14 ± 0.61
313.15 K, 40000 kPa, x2 = 0.7038	745.56 ± 0.63
313.15 K, 40000 kPa, x2 = 0.7993	730.5 ± 0.66
313.15 K, 40000 kPa, x2 = 0.8995	715.76 ± 0.68
313.15 K, 40000 kPa, x2 = 0.9507	708.64 ± 0.7
313.15 K, 50000 kPa, x2 = 0.0531	889.63 ± 0.45
313.15 K, 50000 kPa, x2 = 0.1023	876.7 ± 0.47
313.15 K, 50000 kPa, x2 = 0.2009	852.23 ± 0.52
313.15 K, 50000 kPa, x2 = 0.3009	829.5 ± 0.57
313.15 K, 50000 kPa, x2 = 0.3981	808.88 ± 0.61
313.15 K, 50000 kPa, x2 = 0.4986	789.11 ± 0.65
313.15 K, 50000 kPa, x2 = 0.5998	770.57 ± 0.68
313.15 K, 50000 kPa, x2 = 0.7038	752.8 ± 0.72
313.15 K, 50000 kPa, x2 = 0.7993	737.67 ± 0.75
313.15 K, 50000 kPa, x2 = 0.8995	722.82 ± 0.78
313.15 K, 50000 kPa, x2 = 0.9507	715.59 ± 0.79
313.15 K, 60000 kPa, x2 = 0.0531	897.18 ± 0.47
313.15 K, 60000 kPa, x2 = 0.1023	884.27 ± 0.5
313.15 K, 60000 kPa, x2 = 0.2009	859.72 ± 0.56
313.15 K, 60000 kPa, x2 = 0.3009	836.81 ± 0.61
313.15 K, 60000 kPa, x2 = 0.3981	815.99 ± 0.66
313.15 K, 60000 kPa, x2 = 0.4986	796.1 ± 0.71
313.15 K, 60000 kPa, x2 = 0.5998	777.45 ± 0.75
313.15 K, 60000 kPa, x2 = 0.7038	759.57 ± 0.8
313.15 K, 60000 kPa, x2 = 0.7993	744.29 ± 0.83
313.15 K, 60000 kPa, x2 = 0.8995	729.33 ± 0.87
313.15 K, 60000 kPa, x2 = 0.9507	722.04 ± 0.89
313.15 K, 65000 kPa, x2 = 0.0531	900.74 ± 0.48
313.15 K, 65000 kPa, x2 = 0.1023	887.8 ± 0.52
313.15 K, 65000 kPa, x2 = 0.2009	863.12 ± 0.58
313.15 K, 65000 kPa, x2 = 0.3009	840.18 ± 0.64
313.15 K, 65000 kPa, x2 = 0.3981	819.3 ± 0.69
313.15 K, 65000 kPa, x2 = 0.4986	799.37 ± 0.74
313.15 K, 65000 kPa, x2 = 0.5998	780.62 ± 0.79
313.15 K, 65000 kPa, x2 = 0.7038	762.72 ± 0.84
313.15 K, 65000 kPa, x2 = 0.7993	747.34 ± 0.88
313.15 K, 65000 kPa, x2 = 0.8995	732.38 ± 0.91
313.15 K, 65000 kPa, x2 = 0.9507	725.02 ± 0.93
323.15 K, 100 kPa, x2 = 0.0531	828.79 ± 0.24
323.15 K, 100 kPa, x2 = 0.1023	816.48 ± 0.24
323.15 K, 100 kPa, x2 = 0.2009	793.26 ± 0.24
323.15 K, 100 kPa, x2 = 0.3009	771.57 ± 0.24
323.15 K, 100 kPa, x2 = 0.3981	752.04 ± 0.24
323.15 K, 100 kPa, x2 = 0.4986	733.39 ± 0.25
323.15 K, 100 kPa, x2 = 0.5998	715.95 ± 0.25
323.15 K, 100 kPa, x2 = 0.7038	699.34 ± 0.25
323.15 K, 100 kPa, x2 = 0.7993	685.15 ± 0.25
323.15 K, 100 kPa, x2 = 0.8995	671.24 ± 0.25
323.15 K, 100 kPa, x2 = 0.9507	664.49 ± 0.25
323.15 K, 2000 kPa, x2 = 0.0531	831.42 ± 0.25
323.15 K, 2000 kPa, x2 = 0.1023	819.08 ± 0.25
323.15 K, 2000 kPa, x2 = 0.2009	795.85 ± 0.26
323.15 K, 2000 kPa, x2 = 0.3009	774.11 ± 0.26
323.15 K, 2000 kPa, x2 = 0.3981	754.54 ± 0.26
323.15 K, 2000 kPa, x2 = 0.4986	735.78 ± 0.26
323.15 K, 2000 kPa, x2 = 0.5998	718.28 ± 0.27
323.15 K, 2000 kPa, x2 = 0.7038	701.64 ± 0.27
323.15 K, 2000 kPa, x2 = 0.7993	687.35 ± 0.27
323.15 K, 2000 kPa, x2 = 0.8995	673.46 ± 0.27
323.15 K, 2000 kPa, x2 = 0.9507	666.75 ± 0.28
323.15 K, 5000 kPa, x2 = 0.0531	835.4 ± 0.27
323.15 K, 5000 kPa, x2 = 0.1023	823.02 ± 0.27
323.15 K, 5000 kPa, x2 = 0.2009	799.77 ± 0.28
323.15 K, 5000 kPa, x2 = 0.3009	777.97 ± 0.28
323.15 K, 5000 kPa, x2 = 0.3981	758.35 ± 0.29
323.15 K, 5000 kPa, x2 = 0.4986	739.53 ± 0.29
323.15 K, 5000 kPa, x2 = 0.5998	721.98 ± 0.3
323.15 K, 5000 kPa, x2 = 0.7038	705.28 ± 0.3
